Experimental data published in patent US11566057B2, “Long-acting co-agonists of the glucagon and GLP-1 receptors” (Merck Sharp & Dohme Corp., priority 2017, dated 2023).
Read-outs that look alike come from different tables or passages of the source. Numbered stars: 1 amine (or outer) side, 2 acyl side, 3 side chain; on linkers, the order of the positions; unused ones are H or OH. Square brackets hold non-standard residues; d marks the D form. Side chains are listed from the residue outwards. Peptide text beside a SMILES is read from it. * marks the point of attachment. C20 diacid = O=C(O)CCCCCCCCCCCCCCCCCCC(=O)*; C18 diacid = O=C(O)CCCCCCCCCCCCCCCCC(=O)*; γGlu = O=C(O)[C@H](CCC(=O)[*:2])N[*:1]; Met(O2) = CS(=O)(=O)CC[C@H](N)C(=O)O; αMeF = C[C@](N)(Cc1ccccc1)C(=O)O; αMeD = C[C@](N)(CC(=O)O)C(=O)O; αMeS = C[C@](N)(CO)C(=O)O; AEEA = NCCOCCOCC(=O)O; Aib = CC(C)(N)C(=O)O

Legend:
human GCGR = biological target: T1, human GCGR (Homo sapiens, UniProt P47871); test: cAMP activity assay at the Glucagon receptor (GCGR); format: cell-based; conditions: for hGCGR/hGLP1R (hTone): ratio of GCGR EC50 to GLP1R EC50
T1 construct: expressed in transfected cells; growth medium holds Blasticidin and Hygromycin
How it was run: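 Peptides serially diluted from DMSO (10 points) and added to frozen-stock cells bearing human GLP1R (10,000 cells/well) or GCGR (30,000 cells/well), 1 h at RT, dark. EC50 by four-parameter logistic fit of HitHunter cAMPXS luminescence, read following overnight RT incubation.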

human GLP1R = biological target: T2, human GLP1R (Homo sapiens, UniProt P43220); test: cAMP activity assay at the GLP-1 receptor (GLP1R); format: cell-based
T2 construct: expressed in transfected cells; growth medium holds Blasticidin and Hygromycin
Description: Activity of the peptides at the Glucagon receptor (GCGR) and GLP-1 receptor (GLP1R) was measured in a cAMP activity assay.
GCG/GLP-1 receptor co-agonist peptides were dissolved in 100% DMSO (dimethyl sulfoxide) and serially diluted to generate 10 point titrations. The peptide solutions were then transferred into 384-well assay plates (150 nL/well). Assay ready frozen cells expressing human GLP1R or human GCGR were suspended in growth media consisting of DMEM medium (GIBCO®), 10% FBS (GIBCO®), 1×NEAA(GIBCO®), 1×P/S (GIBCO®), 10 ug/mL Blasticidin (GIBCO®) and 200 μg/mL Hygromycin (GIBCO®). […] The cell suspensions (15 μL) were then added to the assay plates containing the peptide solutions (30,000 cells/well for human GCGR; 10,000 cells/well for human GLP1R). The cells were incubated for 1 hour at room temperature in the dark. Production of cAMP was determined using HitHunter™ cAMPXS kits (DiscoverX) following manufacturer protocol. The plates were incubated for overnight at room temperature in the dark. Luminescence was measured using an EnVision Multilabel plate reader (Perkin Elmer). Native GLP-1 and Glucagon (Bachem) are used as control peptides. EC50 values were calculated using uses a 4 parameter logistic fit based on the Levenberg-Marquardt algorithm.

[1] = summary statement: EC50 at each of the glucagon and GLP-1 receptors, read-out: EC50 at the glucagon receptor
[2] = summary statement: EC50 at each of the glucagon and GLP-1 receptors, read-out: EC50 at the GLP-1 receptor
[3] = cells expressing human GCGR, cAMP production, buffer with or without 20% human serum (not stated which), read-out: GCGR EC50 human
[4] = cells expressing human GLP1R, cAMP production, buffer with or without 20% human serum (not stated which), read-out: GLP1R EC50 human

T2 sequence (P43220 24-463): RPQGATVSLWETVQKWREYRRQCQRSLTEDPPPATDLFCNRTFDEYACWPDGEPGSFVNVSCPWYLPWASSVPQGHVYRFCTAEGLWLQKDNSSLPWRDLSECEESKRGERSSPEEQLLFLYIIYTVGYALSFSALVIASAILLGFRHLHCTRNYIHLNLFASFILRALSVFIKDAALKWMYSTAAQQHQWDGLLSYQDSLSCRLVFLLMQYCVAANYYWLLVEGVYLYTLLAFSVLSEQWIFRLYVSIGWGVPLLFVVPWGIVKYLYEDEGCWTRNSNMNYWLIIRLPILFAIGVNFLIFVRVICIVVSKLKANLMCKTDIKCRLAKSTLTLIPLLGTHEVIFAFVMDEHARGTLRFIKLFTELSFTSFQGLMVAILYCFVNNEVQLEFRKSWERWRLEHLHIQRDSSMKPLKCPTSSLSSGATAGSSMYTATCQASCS
T1 sequence (P47871 26-477): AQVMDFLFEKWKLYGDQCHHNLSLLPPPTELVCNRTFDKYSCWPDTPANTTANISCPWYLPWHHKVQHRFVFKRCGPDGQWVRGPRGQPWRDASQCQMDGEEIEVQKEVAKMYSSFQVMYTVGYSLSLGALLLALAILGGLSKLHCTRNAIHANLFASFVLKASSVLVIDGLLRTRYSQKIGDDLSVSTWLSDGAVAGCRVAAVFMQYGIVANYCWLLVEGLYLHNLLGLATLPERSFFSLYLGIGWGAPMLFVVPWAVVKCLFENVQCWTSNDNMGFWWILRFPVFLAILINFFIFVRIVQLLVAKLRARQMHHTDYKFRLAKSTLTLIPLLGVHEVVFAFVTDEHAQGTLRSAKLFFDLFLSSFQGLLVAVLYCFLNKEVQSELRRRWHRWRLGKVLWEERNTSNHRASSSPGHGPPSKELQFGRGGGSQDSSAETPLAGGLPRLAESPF

Compound	hGCGR/hGLP1R (hTone) (human GCGR)	EC50 (human GCGR; [1]) [nM]	EC50 (human GLP1R; [2]) [nM]	EC50 (human GCGR; [3]) [nM]	EC50 (human GLP1R; [4]) [nM]
CC(C)C[C@H](NC(=O)[C@H](Cc1c[nH]c2ccccc12)NC(=O)[C@H](CCC(N)=O)NC(=O)[C@@H](NC(=O)[C@H](Cc1ccccc1)NC(=O)[C@H](CC(=O)O)NC(=O)[C@H](CCCCNC(=O)COCCOCCNC(=O)COCCOCCNC(=O)CC[C@H](NC(=O)CCCCCCCCCCCCCCCCCCC(=O)O)C(=O)O)NC(=O)[C@H](C)NC(=O)[C@H](C)NC(=O)[C@H](CCCNC(=N)N)NC(=O)C(C)(C)NC(=O)[C@H](CC(=O)O)NC(=O)[C@H](CC(C)C)NC(=O)[C@H](Cc1ccc(O)cc1)NC(=O)[C@H](CCCCN)NC(=O)[C@H](CO)NC(=O)[C@H](Cc1ccc(O)cc1)NC(=O)[C@H](CC(=O)O)NC(=O)[C@H](CO)NC(=O)[C@@H](NC(=O)[C@H](Cc1ccccc1)NC(=O)[C@@H](NC(=O)CNC(=O)[C@H](CCC(N)=O)NC(=O)[C@](C)(CO)NC(=O)[C@@H](N)Cc1c[nH]cn1)[C@@H](C)O)[C@@H](C)O)C(C)C)C(=O)N[C@@H](CCS(C)(=O)=O)C(=O)N[C@@H](CC(=O)O)C(=O)N[C@H](C(N)=O)[C@@H](C)O [TP592] (H-H[αMeS]QGTFTSDYSKYLD[Aib]RAAK([AEEA-AEEA-γGlu-C20 diacid])DFVQWL[Met(O2)]DT-NH2; N-terminus assumed)	1.4	< 5	< 5	3.39	
CC(C)C[C@H](NC(=O)[C@H](Cc1c[nH]c2ccccc12)NC(=O)[C@H](CCC(N)=O)NC(=O)[C@@H](NC(=O)[C@H](Cc1ccccc1)NC(=O)[C@H](CC(=O)O)NC(=O)[C@H](CCCCNC(=O)COCCOCCNC(=O)COCCOCCNC(=O)CC[C@H](NC(=O)CCCCCCCCCCCCCCCCCCC(=O)O)C(=O)O)NC(=O)[C@H](C)NC(=O)[C@H](C)NC(=O)[C@H](CCCNC(=N)N)NC(=O)C(C)(C)NC(=O)[C@H](CC(=O)O)NC(=O)[C@H](CC(C)C)NC(=O)[C@H](Cc1ccc(O)cc1)NC(=O)[C@H](CCCCN)NC(=O)[C@H](CO)NC(=O)[C@H](Cc1ccc(O)cc1)NC(=O)[C@H](CC(=O)O)NC(=O)[C@H](CO)NC(=O)[C@@H](NC(=O)[C@H](Cc1ccccc1)NC(=O)[C@@H](NC(=O)CNC(=O)[C@H](CCC(N)=O)NC(=O)[C@](C)(CO)NC(=O)[C@@H](N)Cc1c[nH]cn1)[C@@H](C)O)[C@@H](C)O)C(C)C)C(=O)N[C@@H](CCS(C)(=O)=O)C(=O)N[C@@H](CC(=O)O)C(=O)N[C@H](C(N)=O)[C@@H](C)O [TP593] (H-H[αMeS]QGTFTSDYSKYLD[Aib]RAAK([AEEA-AEEA-γGlu-C20 diacid])DFVQWL[Met(O2)]DT-NH2)	<0.15			0.73	4.95
CC(C)C[C@H](NC(=O)[C@H](Cc1ccc(O)cc1)NC(=O)[C@H](CCCCN)NC(=O)[C@H](CO)NC(=O)[C@H](Cc1ccc(O)cc1)NC(=O)[C@H](CC(=O)O)NC(=O)[C@H](CO)NC(=O)[C@@H](NC(=O)[C@H](Cc1ccccc1)NC(=O)[C@@H](NC(=O)CNC(=O)[C@H](CCC(N)=O)NC(=O)C(C)(C)NC(=O)[C@@H](N)Cc1c[nH]cn1)[C@@H](C)O)[C@@H](C)O)C(=O)N[C@@H](CC(=O)O)C(=O)N[C@@H](C)C(=O)N[C@@H](CCCNC(=N)N)C(=O)N[C@@H](C)C(=O)N[C@@H](C)C(=O)N[C@@H](CCCCNC(=O)COCCOCCNC(=O)COCCOCCNC(=O)CC[C@H](NC(=O)CCCCCCCCCCCCCCCCCCC(=O)O)C(=O)O)C(=O)N[C@@](C)(CC(=O)O)C(=O)N[C@@H](Cc1ccccc1)C(=O)N[C@H](C(=O)N[C@@H](CCC(N)=O)C(=O)N[C@@H](Cc1c[nH]c2ccccc12)C(=O)N[C@@H](CC(C)C)C(=O)N[C@@H](CCS(C)(=O)=O)C(=O)N[C@@H](CC(=O)O)C(=O)N[C@H](C(N)=O)[C@@H](C)O)C(C)C [TP594] (H-H[Aib]QGTFTSDYSKYLDARAAK([AEEA-AEEA-γGlu-C20 diacid])[αMeD]FVQWL[Met(O2)]DT-NH2; N-terminus assumed)	1.9	< 5	< 5	4.95	
CC(C)C[C@H](NC(=O)[C@H](Cc1ccc(O)cc1)NC(=O)[C@H](CCCCN)NC(=O)[C@H](CO)NC(=O)[C@H](Cc1ccc(O)cc1)NC(=O)[C@H](CC(=O)O)NC(=O)[C@H](CO)NC(=O)[C@H](CC(C)C)NC(=O)[C@H](Cc1ccccc1)NC(=O)[C@@H](NC(=O)CNC(=O)[C@H](CCC(N)=O)NC(=O)C(C)(C)NC(=O)[C@@H](N)Cc1c[nH]cn1)[C@@H](C)O)C(=O)N[C@@H](CC(=O)O)C(=O)N[C@@H](C)C(=O)N[C@@H](CCCNC(=N)N)C(=O)N[C@@H](C)C(=O)N[C@@H](C)C(=O)N[C@@H](CCCCNC(=O)COCCOCCNC(=O)COCCOCCNC(=O)CC[C@H](NC(=O)CCCCCCCCCCCCCCCCC(=O)O)C(=O)O)C(=O)N[C@@H](CC(=O)O)C(=O)N[C@@H](Cc1ccccc1)C(=O)N[C@H](C(=O)N[C@@H](CCC(N)=O)C(=O)N[C@@H](Cc1c[nH]c2ccccc12)C(=O)N[C@@H](CC(C)C)C(=O)N[C@@H](CCS(C)(=O)=O)C(=O)N[C@@H](CC(=O)O)C(=O)N[C@H](C(N)=O)[C@@H](C)O)C(C)C [TP596] (H-H[Aib]QGTFLSDYSKYLDARAAK([AEEA-AEEA-γGlu-C18 diacid])DFVQWL[Met(O2)]DT-NH2; N-terminus assumed)	0.2	< 5	< 5	0.35	> 20

The remaining lines, values ahead:

hGCGR/hGLP1R (hTone) (human GCGR)	EC50 (human GCGR; [1]) [nM]	EC50 (human GLP1R; [2]) [nM]	EC50 (human GCGR; [3]) [nM]	EC50 (human GLP1R; [4]) [nM]	Compound
3.1	< 5	< 5			CC(C)C[C@H](NC(=O)[C@H](Cc1ccc(O)cc1)NC(=O)[C@H](CCCCN)NC(=O)[C@H](CO)NC(=O)[C@H](Cc1ccc(O)cc1)NC(=O)[C@H](CC(=O)O)NC(=O)[C@H](CO)NC(=O)[C@@H](NC(=O)[C@H](Cc1ccccc1)NC(=O)[C@@H](NC(=O)CNC(=O)[C@H](CCC(N)=O)NC(=O)C(C)(C)NC(=O)[C@@H](N)Cc1c[nH]cn1)[C@@H](C)O)[C@@H](C)O)C(=O)N[C@@H](CC(=O)O)C(=O)N[C@@H](C)C(=O)N[C@@H](CCCNC(=N)N)C(=O)N[C@@H](C)C(=O)N[C@@H](C)C(=O)N[C@@H](CCCCNC(=O)COCCOCCNC(=O)COCCOCCNC(=O)CC[C@H](NC(=O)CCCCCCCCCCCCCCCCCCC(=O)O)C(=O)O)C(=O)N[C@@H](CC(=O)O)C(=O)N[C@@](C)(Cc1ccccc1)C(=O)N[C@H](C(=O)N[C@@H](CCC(N)=O)C(=O)N[C@@H](Cc1c[nH]c2ccccc12)C(=O)N[C@@H](CC(C)C)C(=O)N[C@@H](CCS(C)(=O)=O)C(=O)N[C@@H](CC(=O)O)C(=O)N[C@H](C(N)=O)[C@@H](C)O)C(C)C [TP590] (H-H[Aib]QGTFTSDYSKYLDARAAK([AEEA-AEEA-γGlu-C20 diacid])D[αMeF]VQWL[Met(O2)]DT-NH2)
0.2	< 5	< 5		> 20	CC(C)C[C@H](NC(=O)[C@H](Cc1ccc(O)cc1)NC(=O)[C@H](CCCCN)NC(=O)[C@H](CO)NC(=O)[C@H](Cc1ccc(O)cc1)NC(=O)[C@H](CC(=O)O)NC(=O)[C@H](CO)NC(=O)[C@H](Cc1ccccc1)NC(=O)[C@H](Cc1ccccc1)NC(=O)[C@@H](NC(=O)CNC(=O)[C@H](CCC(N)=O)NC(=O)C(C)(C)NC(=O)[C@@H](N)Cc1c[nH]cn1)[C@@H](C)O)C(=O)N[C@@H](CC(=O)O)C(=O)N[C@@H](C)C(=O)N[C@@H](CCCNC(=N)N)C(=O)N[C@@H](C)C(=O)N[C@@H](C)C(=O)N[C@@H](CCCCNC(=O)COCCOCCNC(=O)COCCOCCNC(=O)CC[C@H](NC(=O)CCCCCCCCCCCCCCCCC(=O)O)C(=O)O)C(=O)N[C@@H](CC(=O)O)C(=O)N[C@@H](Cc1ccccc1)C(=O)N[C@H](C(=O)N[C@@H](CCC(N)=O)C(=O)N[C@@H](Cc1c[nH]c2ccccc12)C(=O)N[C@@H](CC(C)C)C(=O)N[C@@H](CCS(C)(=O)=O)C(=O)N[C@@H](CC(=O)O)C(=O)N[C@H](C(N)=O)[C@@H](C)O)C(C)C [TP595] (H-H[Aib]QGTFFSDYSKYLDARAAK([AEEA-AEEA-γGlu-C18 diacid])DFVQWL[Met(O2)]DT-NH2; N-terminus assumed)
